Results as given in US20110152214A1, “SILK POLYMER-BASED ADENOSINE RELEASE: THERAPEUTIC POTENTIAL FOR EPILEPSY” (TRUSTEES OF TUFTS COLLEGE, priority 2008, published 2011).
Entries after “also recorded” stand apart in the source; their conditions may differ.

Key:
[1] = tested on: fully kindled rats; assay: Experiment 1: suppression of kindled seizures by polymer-based adenosine release; format: in vivo, rat
Excerpt: Experiment 1: Four days after surgery, the animals were stimulated unilaterally six times every second or third day with a Grass S-88 stimulator (1-ms square-wave pulses of 5 V at 50-Hz frequency for 10 s, 30-min interval between stimulations; these stimulations corresponded to about 350 μA, whereas the afterdischarge thresholds before kindling were in the range of 115 μA). Behavioral seizures were scored according to the scale of Racine (Racine, 1978). The electroencephalogram (EEG) was recorded for periods of 1 min before and 5 min after application of each stimulating pulse using a Nervus EEG monitoring system. Stimulations on each day were discontinued whenever a stage 5 seizure on that day was reached. Eventually, all animals reacted with a stage 5 seizure at the first (and then only) daily stimulation. After three stage 5 seizures elicited by the first stimulation on three subsequent kindling-days animals were considered to be fully kindled (i.e. reproducibility of stage 5 seizure activity after stimulation). […] Only animals that fulfilled these stringent kindling criteria were used for the subsequent experiments. Polymers were implanted into these fully kindled animals. Implant recipients received one test-stimulation each on day 4, 6, 10, 14, 18, and 21 after polymer implantation and were then subjected to histological analysis. […]

[2] = tested on: rat kindling model; assay: Experiment 2a: kindling on days 4, 6, 8, 11 after implantation, then DPCPX test; format: in vivo; details: 1 mg/kg, i.p., 30 min prior to stimulation, day twelve
Excerpt: Experiment 2: Polymer implantation (see below) was combined with electrode implantation (see above) in the same surgery. Experiment 2a: Kindling was initiated four days after polymer implantation with the animals receiving 6 kindling stimulations (1-ms square-wave pulses of 5 V at 50-Hz frequency for 10 sec, 30-min interval between stimulations) each on day 4, 6, 8, and 11 after implantation; this amounted to a total of 24 stimulations. […] Twenty-four (24) hr after this drug test all animals were stimulated again once before being sacrificed for histological analysis. Experiment 2b (FIG. 3): Kindling was initiated four days after polymer implantation with the animals receiving six kindling stimulations each on days 4, 5, 6, 7, and 8, after implantation; this amounted to a total of 30 stimulations. In these incompletely kindled adenosine-implant recipients further stimulations were suspended until adenosine release from the polymers had expired (from day eighteen onwards). Kindling stimulations were resumed on days 18, 19, 20, 21, and 22 after implantation (6 stimulations/day; total of 30 additional stimulations). Afterwards the animals were sacrificed for histological analysis. […]

[3] = tested on: fully kindled rats; details: Boison et al. 2002; Güttinger et al. 2005; Huber et al. 2001; cited from earlier work
[4] = tested on: rat kindling model; details: Silver et al., 1991; cited from earlier work
[5] = tested on: rat kindling model; format: in vivo
Procedure: Anesthesia was induced with 3% isoflurane, 67% N2O, 30% O2 and maintained with 1.5% isoflurane, 68.5% N2O, 30% O2, while rats (N=22) were placed in a Kopf stereotactic frame. […]
Four days after surgery, the animals were stimulated unilaterally six times every second or third day with a Grass S-88 stimulator (1-ms square-wave pulses of 5V at 50-Hz frequency for 10 sec; 30 min-interval between stimulations). Behavioral seizures were scored according to the scale of Racine (3(2) Neurosurg. 234-52 (1978)). […] The electroencephalogram (EEG) was recorded for periods of 1 min before and 5 min after application of each stimulating pulse using a Nervus EEG monitoring system. […]
Seizure scores were determined after each stimulation according to the scale of Racine (1978). […]

Compound: OC[C@H]1O[C@@H](n2cnc3c(NC4CCCC4)nc(Cl)nc32)[C@H](O)[C@@H]1O [CCPA, 2-chloro-N(6)-cyclopentyladenosine]
- seizure response to test stimulation ([1]; 3 mg/kg i.p., 30 min prior to test stimulation, before polymer implantation): complete seizure suppression

Compound: CCCn1c(=O)c2[nH]c(C3CCCC3)nc2n(CCC)c1=O [DPCPX, 8-cyclopentyl-1,3-dipropylxanthine]
- seizure stage elicited in an ADO-polymer treated rat after DPCPX ([1]; 1 mg/kg, i.p., 30 min after injection, day three): 5
- effect of DPCPX on seizure score in adenosine-releasing implant recipients [2]: failed to elicit control group-like seizures; also recorded: did not increase the seizure score; also recorded: failed to increase seizure scores
- seizures elicited by DPCPX paired with kindling stimulations [3]: readily elicits stage 5 seizures

Compound: NC(=O)N1c2ccccc2C=Cc2ccccc21 [carbamazepine]
- effect on kindling development / antiepileptogenesis [4]: did not affect kindling development during the drug-phase

Compound: Nc1ncnc2c1ncn2[C@@H]1O[C@H](CO)[C@@H](O)[C@H]1O [adenosine]
- doses sufficient to suppress kindling ([5]; focal infrahippocampal release, from Table 3): around 400 ng adenosine/day
- tolerability of high doses, gross behavioral changes ([5]; rat, in vivo): well tolerated
